{
  "source": "patent US6524616B1",
  "about": "“COMPOSITIONS AND METHODS FOR TREATING OR PREVENTING NEURODEGENERATION AND COGNITIVE DECLINE AND DYSFUNCTION ASSOCIATED WITH ALZHEIMER'S DISEASE, AGING, OTHER DEMENTIA RELATED DISORDERS AND ESTROGEN DEFICIENCY RELATED CONDITIONS” (priority 1999, dated 2003)",
  "key": {"[1]": {"test_system": "patients with Alzheimer's disease", "conditions": "cited from earlier work; for Effects on Cognitive Function: cognitive decline in Alzheimer's disease"}, "BuChE (blood)": {"test_system": "BuChE (blood)", "conditions": "read-out: IC50 BuChE, in vitro; cited from earlier work"}, "patients": {"test_system": "patients", "conditions": "Tacrine 100 mg/day; cited from earlier work"}, "liver": {"test_system": "liver", "conditions": "in vivo; cited from earlier work"}, "[2]": {"conditions": "in vivo; cited from earlier work"}, "aged ovariectomized rats": {"test_system": "aged ovariectomized rats", "assay": "Radial arm maze test, Example 2 (chronic estrogen-deficient aged rats)", "type": "in vivo", "experimental": "Thirty-six retired breeder female rats (8-10 months old) were purchased from Harlan Sprague Dawley, Inc. The rats were housed in separate cages and were initially maintained on a 12:12 hour light/dark cycle with access to Chow diet and water ad libitum. All procedures done on the animals were approved by the Animal Care and Use Committee of Wake Forest University. After bilateral ovariectomy, the rats were fed with a casein/lactalbumin-based control diet for about 12 months (until about 2 years of age). The rats were then evaluated in a 8-arm radial arm maze to determine their baseline working memory. […] The rats were tested in the maze at 1 and 3 months after the initiation of the treatments.\nAfter 3 months of treatment, each of the 3 groups were divided randomly into two subgroups. One subgroup was given Hup A orally (0.3 mg/Kg of body weight) in addition to their control regimen or treatment with SPEs or E2 and the other subgroup received no Hup A. After 3 weeks of Hup A supplementation, working memory was reevaluated.\nA pellet of fudge brownie (Little Debbie, Mckee Foods, Collegedale, Tenn.) was placed in each of the 8 food wells located at the end of each arm to serve as a reward. The rats were allowed to explore the maze for 10 min or until all eight rewards were eaten. The training session was terminated when the rats were able to eat all 8 rewards within 10 min.\nAfter the training, the rats were tested once per day 4 consecutive days per week for two weeks. One day prior to the test, and during the first three test days, the food intake was reduced to 25% of the normal 40 g/day food intake. A visit to an arm was recorded if the rat reached three-fourths of the length of the arm. The maze performance was recorded as the number of correct choices in the first 8 visits. A mistake was counted if a rat reentered an arm from which the rat has already eaten the bait. A test session of a rat was terminated when the rat ate all eight rewards or 10 min had elapsed. […]"}, "[3]": {"test_system": "ovariectomized retired breeder female rats", "assay": "Radial arm maze test, Example 1 (10 months of treatment)", "type": "in vivo", "conditions": "oral in diet, given alone", "experimental": "Eight-four retired breeder females (Sprague-Dawley), weighing 300-360 g (8-10 months old), were purchased from Harlan Sprague Dawley, Inc. The rats were housed in separate cages and were initially maintained on a 12:12 hour light/dark cycle with access to Chow diet and water ad libitum. All procedures done on the animals were approved by the Animal Care and Use Committee of Wake Forest University. Upon arrival, the rats were weighed, and then randomized into the 12 treatment groups using a stratified randomization scheme, stratifying by body weight.\nShown in Table 5 below is the 3×4 factorial study design and includes the number of rats that finished the maze tests. […]\nAfter the training, the rats were tested twice per day (in the morning and afternoon) 4 consecutive days per week for two weeks. […] A visit to an arm was recorded if the rat reached three-fourths of the length of the arm. The maze performance was recorded as the number of correct choices in the first 8 visits. A mistake was counted if a rat reentered an arm from which the rat has already eaten the bait. […]\nAll data were analyzed using BMDP Statistical Software, version 7.0 (Los Angeles, Calif.). Uterine weights expressed as a percentage of body weight and body weight violated the assumption of equal variances, and were not normally distributed. […] Body weight, uterine weight, and maze data were analyzed by 2-way ANOVA. […]"}},
  "note": "pIC50: −log10 of the molar value.",
  "data": [
    {"compound": "CN1CCCC1c1cccnc1", "note": "(centres unmarked) [Nicotine]", "values": [
      {"measurement": "Effects on Cognitive Function", "setting": "[1]", "value": "Slight Improvement"}
    ]},
    {"compound": "Nc1c2c(nc3ccccc13)CCCC2", "note": "[Tacrine]", "values": [
      {"measurement": "Effects on Cognitive Function", "setting": "[1]", "value": "Unchanged to Significant Improvement"},
      {"measurement": "improving symptoms of Alzheimer's disease", "setting": "[1]; in vivo", "value": "mildly effective"},
      {"measurement": "pIC50", "setting": "BuChE (blood)", "value": "[…]"},
      {"measurement": "Abdominal Cramps", "setting": "patients", "value": "38 Per Cent of Patients"},
      {"measurement": "Diarrhea", "setting": "patients", "value": "23 Per Cent of Patients"},
      {"measurement": "Dizziness", "setting": "patients", "value": "12 Per Cent of Patients"},
      {"measurement": "Excessive Sweating", "setting": "patients", "value": "4 Per Cent of Patients"},
      {"measurement": "Nausea", "setting": "patients", "value": "25 Per Cent of Patients"},
      {"measurement": "Polyuria", "setting": "patients", "value": "25 Per Cent of Patients"},
      {"measurement": "Ptyalsim", "setting": "patients", "value": "10 Per Cent of Patients"},
      {"measurement": "Vomitin", "setting": "patients", "value": "15 Per Cent of Patients"},
      {"measurement": "liver toxicity", "setting": "liver", "value": "toxic to the liver"}
    ]},
    {"compound": "CNC(=O)Oc1ccc2c(c1)[C@]1(C)CCN(C)[C@@H]1N2C", "note": "[Physostigmine]", "values": [
      {"measurement": "half-life", "setting": "[2]", "value": "short half-life"}
    ]},
    {"compound": "C/C=C1\\[C@H]2C=C(C)C[C@]1(N)c1ccc(=O)[nH]c1C2", "note": "[Huperzine A, (5R, 9R, 11E)-5-amino-11-ethylidene-5,6,9,10-tetrahydro-7-methyl-5,9-methanocycloocta(b)pyridin2(1H)-one]", "values": [
      {"measurement": "Effects on Cognitive Function", "setting": "[1]", "value": "Significant Improvement"},
      {"measurement": "cognitive function (proportion of animals with improved working memory)", "setting": "aged ovariectomized rats; Hup A 0.3 mg/Kg orally for 3 weeks added to E2 treatment", "value": "slightly improved"},
      {"measurement": "cognitive function (proportion of animals with improved working memory)", "setting": "aged ovariectomized rats; Hup A 0.3 mg/Kg orally for 3 weeks added to SPE treatment", "value": "considerably improved"}
    ]},
    {"compound": "CC(C[N+](C)(C)C)OC(N)=O", "note": "(centres unmarked) [Bethanecol]", "values": [
      {"measurement": "Effects on Cognitive Function", "setting": "[1]", "value": "Unchanged/Slight Improvement"}
    ]},
    {"compound": "Lecithin", "values": [
      {"measurement": "Effects on Cognitive Function", "setting": "[1]", "value": "Unchanged/Slight Improvement"}
    ]},
    {"compound": "O=C1CCCN1CC#CCN1CCCC1", "note": "[Oxotremorine]", "values": [
      {"measurement": "Effects on Cognitive Function", "setting": "[1]", "value": "Unchanged"}
    ]},
    {"compound": "Phosphatidylserine", "values": [
      {"measurement": "Effects on Cognitive Function", "setting": "[1]", "value": "Slight Improvement"}
    ]},
    {"compound": "CC12CCC3c4ccc(O)cc4CCC3C1CCC2O", "note": "(stereo not drawn) [estradiol, 17-β estradiol]", "values": [
      {"measurement": "performance of the radial arm maze tests", "setting": "[3]", "value": "dosedependent improvement"},
      {"measurement": "maze performance (working memory) versus Ctl group", "setting": "aged ovariectomized rats; at both 1 and 3 months of treatment, after 12 months of estrogen-deficiency", "value": "significantly better"}
    ]},
    {"compound": "COC(=O)C1=CCCN(C)C1", "note": "[Arecoline]", "values": [
      {"measurement": "Effects on Cognitive Function", "setting": "[1]", "value": "Unchanged/Slight Improvement"}
    ]},
    {"compound": "CC[C@@H]1C(=O)OC[C@@H]1Cc1cncn1C", "note": "[Pilocarpine]", "values": [
      {"measurement": "Effects on Cognitive Function", "setting": "[1]", "value": "Unchanged"}
    ]},
    {"compound": "Nc1ccncc1", "note": "[4-aminopyridine]", "values": [
      {"measurement": "Effects on Cognitive Function", "setting": "[1]", "value": "Unchanged/Slight Improvement"}
    ]}
  ]
}
